Data on eight compounds can be found in ChEMBL document CHEMBL5214968, “Recent Scaffold Hopping Applications in Central Nervous System Drug Discovery” (J Med Chem, 2022).

The target in experiment [1] is Microtubule-associated protein tau (Homo sapiens) (UniProt P10636). Description: Inhibition of heparin-induced tau protein (unknown origin) aggregation at 100 uM incubated for 3 days by Thioflavin T fluorescence assay. As to conditions: time 3.0 day.
Experiment [2] concerns the target Cannabinoid receptor 1 (Homo sapiens, UniProt P21554). Description: Agonist activity at human CB1 receptor expressed in mouse AtT20 cells by FLIPR assay. Format: functional, cell-based.
For experiment [3], the target named is Cannabinoid receptor 2 (Homo sapiens, UniProt P34972). The experiment is described as follows: Agonist activity at human CB2 receptor expressed in mouse AtT20 cells by FLIPR assay. Type of experiment: functional, cell-based.
Chain of Cannabinoid receptor 2 (P34972 whole entry): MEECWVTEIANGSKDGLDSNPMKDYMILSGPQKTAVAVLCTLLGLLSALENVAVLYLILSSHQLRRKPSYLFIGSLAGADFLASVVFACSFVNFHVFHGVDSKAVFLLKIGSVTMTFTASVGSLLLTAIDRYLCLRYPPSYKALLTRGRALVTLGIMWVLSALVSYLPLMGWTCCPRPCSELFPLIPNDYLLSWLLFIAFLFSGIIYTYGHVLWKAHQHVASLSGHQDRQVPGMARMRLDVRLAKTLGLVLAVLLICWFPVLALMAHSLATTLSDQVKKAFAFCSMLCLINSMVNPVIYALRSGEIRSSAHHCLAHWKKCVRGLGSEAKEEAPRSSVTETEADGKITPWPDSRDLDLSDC
Experiment [4] addresses T1, Cyclin-G-associated kinase (Homo sapiens, UniProt O14976).
T1 sequence (O14976 whole entry): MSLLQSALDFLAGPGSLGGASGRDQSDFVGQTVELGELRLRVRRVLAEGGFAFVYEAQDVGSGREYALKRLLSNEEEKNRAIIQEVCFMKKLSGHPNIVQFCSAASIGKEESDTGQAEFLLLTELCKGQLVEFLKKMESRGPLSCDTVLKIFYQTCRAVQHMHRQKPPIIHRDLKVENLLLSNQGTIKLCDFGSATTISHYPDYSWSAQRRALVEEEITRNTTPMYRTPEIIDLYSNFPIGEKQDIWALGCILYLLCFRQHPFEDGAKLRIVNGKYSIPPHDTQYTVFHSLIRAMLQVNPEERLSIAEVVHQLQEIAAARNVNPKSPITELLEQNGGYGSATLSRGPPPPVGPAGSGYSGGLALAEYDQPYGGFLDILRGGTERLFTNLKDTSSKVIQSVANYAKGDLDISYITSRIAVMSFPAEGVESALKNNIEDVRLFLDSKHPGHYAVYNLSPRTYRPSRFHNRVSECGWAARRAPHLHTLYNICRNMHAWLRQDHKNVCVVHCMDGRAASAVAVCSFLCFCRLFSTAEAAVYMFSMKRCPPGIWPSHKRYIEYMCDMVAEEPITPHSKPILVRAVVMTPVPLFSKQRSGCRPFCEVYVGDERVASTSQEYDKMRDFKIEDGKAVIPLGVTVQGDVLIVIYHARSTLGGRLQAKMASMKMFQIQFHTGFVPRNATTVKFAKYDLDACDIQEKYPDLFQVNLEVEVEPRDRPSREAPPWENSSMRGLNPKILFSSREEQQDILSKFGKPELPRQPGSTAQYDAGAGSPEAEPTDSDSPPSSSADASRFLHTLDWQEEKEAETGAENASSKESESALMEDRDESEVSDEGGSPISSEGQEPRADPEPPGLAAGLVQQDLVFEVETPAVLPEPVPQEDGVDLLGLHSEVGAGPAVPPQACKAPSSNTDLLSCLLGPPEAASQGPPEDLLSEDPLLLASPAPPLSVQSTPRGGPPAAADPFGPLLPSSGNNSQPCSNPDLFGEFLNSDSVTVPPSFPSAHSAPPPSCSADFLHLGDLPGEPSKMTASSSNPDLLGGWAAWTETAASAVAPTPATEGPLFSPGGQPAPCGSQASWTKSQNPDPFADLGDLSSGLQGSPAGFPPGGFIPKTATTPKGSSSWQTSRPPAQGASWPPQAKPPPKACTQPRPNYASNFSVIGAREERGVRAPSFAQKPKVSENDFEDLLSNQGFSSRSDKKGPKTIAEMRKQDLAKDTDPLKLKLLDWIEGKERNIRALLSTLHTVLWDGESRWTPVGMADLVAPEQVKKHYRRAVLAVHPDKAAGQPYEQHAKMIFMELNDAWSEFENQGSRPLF
Description: Binding affinity to GAK (unknown origin) by KINOMEscan analysis.

Experiment [5] concerns the target Mu-type opioid receptor (Homo sapiens, UniProt P35372). The experiment is described as follows: Displacement of [3H]DAMGO from human cloned mu-opioid receptor by radioligand binding assay. (Displacement assays read how much labelled ligand stays bound in the presence of the test substance.)

pEC50, pKd, pKi: −log10 of the molar value. Some results are limits rather than exact numbers.

Chain of Microtubule-associated protein tau (Homo sapiens) (P10636 whole entry): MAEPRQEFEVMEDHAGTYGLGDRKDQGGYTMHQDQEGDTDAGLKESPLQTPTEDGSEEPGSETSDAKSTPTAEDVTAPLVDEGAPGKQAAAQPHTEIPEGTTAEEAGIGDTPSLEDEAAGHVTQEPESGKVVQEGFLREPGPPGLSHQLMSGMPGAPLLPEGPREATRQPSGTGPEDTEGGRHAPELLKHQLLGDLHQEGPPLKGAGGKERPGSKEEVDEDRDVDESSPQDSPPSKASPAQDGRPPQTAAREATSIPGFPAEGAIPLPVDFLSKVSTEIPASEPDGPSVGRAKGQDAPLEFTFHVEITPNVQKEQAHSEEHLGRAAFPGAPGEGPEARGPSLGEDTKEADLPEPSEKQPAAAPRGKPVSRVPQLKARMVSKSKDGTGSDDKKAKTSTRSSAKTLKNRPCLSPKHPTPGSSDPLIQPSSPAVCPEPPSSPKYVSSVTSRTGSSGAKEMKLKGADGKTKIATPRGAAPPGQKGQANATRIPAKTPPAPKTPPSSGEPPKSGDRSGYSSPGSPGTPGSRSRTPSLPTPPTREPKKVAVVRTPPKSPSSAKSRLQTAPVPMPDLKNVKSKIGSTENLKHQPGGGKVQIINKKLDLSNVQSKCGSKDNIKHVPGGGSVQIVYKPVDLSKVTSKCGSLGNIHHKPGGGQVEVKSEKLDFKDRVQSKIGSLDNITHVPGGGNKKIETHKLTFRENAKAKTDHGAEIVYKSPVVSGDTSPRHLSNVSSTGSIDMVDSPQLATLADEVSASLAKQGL
Chain of Cannabinoid receptor 1 (P21554 whole entry): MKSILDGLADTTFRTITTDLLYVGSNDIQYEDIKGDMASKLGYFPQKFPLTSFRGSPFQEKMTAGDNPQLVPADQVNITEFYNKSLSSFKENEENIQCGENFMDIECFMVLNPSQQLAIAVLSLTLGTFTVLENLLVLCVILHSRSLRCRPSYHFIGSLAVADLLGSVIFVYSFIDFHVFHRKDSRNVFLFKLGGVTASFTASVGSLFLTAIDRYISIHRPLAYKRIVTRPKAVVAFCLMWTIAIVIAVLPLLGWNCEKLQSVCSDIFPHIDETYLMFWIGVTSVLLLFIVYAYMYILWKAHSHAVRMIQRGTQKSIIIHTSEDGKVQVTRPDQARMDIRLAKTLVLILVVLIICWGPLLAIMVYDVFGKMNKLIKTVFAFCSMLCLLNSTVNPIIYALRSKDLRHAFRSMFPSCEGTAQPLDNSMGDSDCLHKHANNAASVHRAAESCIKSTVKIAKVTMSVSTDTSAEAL
Chain of Mu-type opioid receptor (P35372 whole entry): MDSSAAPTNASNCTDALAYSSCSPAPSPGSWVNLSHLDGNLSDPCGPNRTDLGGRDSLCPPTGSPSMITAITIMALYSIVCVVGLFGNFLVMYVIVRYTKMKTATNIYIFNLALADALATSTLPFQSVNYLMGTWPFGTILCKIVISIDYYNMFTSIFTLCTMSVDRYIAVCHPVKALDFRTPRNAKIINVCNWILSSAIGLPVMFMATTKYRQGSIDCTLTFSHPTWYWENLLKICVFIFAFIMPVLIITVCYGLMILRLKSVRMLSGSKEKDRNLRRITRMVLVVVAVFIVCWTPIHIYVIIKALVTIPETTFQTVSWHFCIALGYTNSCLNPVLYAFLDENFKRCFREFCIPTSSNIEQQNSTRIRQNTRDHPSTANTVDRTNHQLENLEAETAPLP

As to `O=C(NC1CC1)c1nn(-c2ccc(F)cc2)c(=O)c2cscc12`, in experiment [1], the inhibition – broadly, the drop in the measured response relative to a control, in per cent – was found to be 51%. Regarding `CC(C)(NC(=O)c1cn(CCCCCF)c2ncccc12)c1ccccc1`, the pEC50 (commonly the EC50 on a negative log10 scale, so that one unit is a factor of ten) in experiment [2] was 8.33; in experiment [3], 7.95.

Take `CC(C)(NC(=O)c1nn(CCCCCF)c2ccccc12)c1ccccc1`: the pEC50 was 9.37 in experiment [2] and 7.95 in experiment [3]. As for `COc1ccc(-c2cnc3c(c2)nnn3-c2ccccc2)cc1OC`, the negative logarithm of the Kd (pKd) (commonly the Kd on a negative log10 scale, so that one unit is a factor of ten) in experiment [4] is less than 4.52. In the case of `O=C(NCCc1ccccc1)[C@H]1CCN(C(=O)Cc2ccc(O)cc2)[C@@H]1C(=O)NCCc1c[nH]c2ccccc12`, in experiment [5], the pKi (usually −log10 of the Ki, conventionally taken in molar units) was 6.09. In the case of `O=C(NC1CC1)/C(=N\O)c1cscc1C(=O)NC12CC3CC(CC(C3)C1)C2`, the inhibition in experiment [1] is 30%. With `CC(C)(NC(=O)c1cn(CCCCCF)c2ccccc12)c1ccccc1`, the pEC50 in experiment [2] was 8.55; in experiment [3], 7.40. `C=CCO/N=C(\C(=O)NC1CC1)c1cscc1C(=O)Nc1ccc(F)cc1`: the inhibition in experiment [1] amounted to 33%.
